The values that follow come from patent publication US20040266863A1, “Use of (11beta,17beta)-11-(1,3-benzodioxol-5-yl)-17-hydroxy-17-(1-propynyl)-estra-4,9-dien-3-one in the treatment of major depressive disorder” (priority 2001, published 2004).

Assay [1] deals with immature dexamethasone treated male rats. Description: in vivo antiglucocorticoid activity in immature dexamethasone treated male rats (procedure of Kloosterboer et al). Further details: species or system rat. Conditions: for threshold dose for demonstrating in vivo antiglucocorticoid effects: rat.
In assay [2] the test system is patients with psychotic major depression. The settings on record: 8-12 mg/kg/day over 4 days (WO 99/17779); cited from earlier work.
The next assay has as its target T1, glucocorticoid receptor (Homo sapiens, UniProt P04150).
T1 sequence (P04150 1-777): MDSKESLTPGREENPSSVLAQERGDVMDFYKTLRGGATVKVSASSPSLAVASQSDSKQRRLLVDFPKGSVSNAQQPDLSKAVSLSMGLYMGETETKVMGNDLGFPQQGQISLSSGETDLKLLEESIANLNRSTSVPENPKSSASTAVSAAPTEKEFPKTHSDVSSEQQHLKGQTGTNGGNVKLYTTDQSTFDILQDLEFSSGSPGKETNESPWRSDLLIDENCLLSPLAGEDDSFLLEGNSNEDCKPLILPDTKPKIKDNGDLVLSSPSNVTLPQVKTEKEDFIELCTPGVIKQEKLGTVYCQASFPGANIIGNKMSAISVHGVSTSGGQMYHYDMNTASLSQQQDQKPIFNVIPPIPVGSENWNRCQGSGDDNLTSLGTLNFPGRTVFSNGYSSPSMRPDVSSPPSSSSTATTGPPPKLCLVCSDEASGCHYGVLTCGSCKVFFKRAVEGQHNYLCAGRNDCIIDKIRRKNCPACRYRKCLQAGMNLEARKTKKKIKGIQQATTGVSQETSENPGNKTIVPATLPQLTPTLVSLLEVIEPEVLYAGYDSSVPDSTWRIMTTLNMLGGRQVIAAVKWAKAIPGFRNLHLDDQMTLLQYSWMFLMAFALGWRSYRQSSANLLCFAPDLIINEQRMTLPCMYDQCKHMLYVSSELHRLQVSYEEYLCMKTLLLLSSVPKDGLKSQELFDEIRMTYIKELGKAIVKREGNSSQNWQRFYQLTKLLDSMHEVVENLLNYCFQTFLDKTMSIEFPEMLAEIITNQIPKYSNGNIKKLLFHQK
Briefly: in vitro binding to the glucocorticoid receptor.

The subject of the next assay is (healthy) humans. Briefly: clinical study of antiglucocorticoid activity in healthy humans (cortisol increase, dexamethason antagonism). It is filed as in vivo, human.
Assay [3] relates to depressed patients (Major Depressive Disorder). Briefly: double blind, 4 week, paroxetine controlled study in patients with Major Depressive Disorder (HAMD-21). It is filed as in vivo, human. The settings on record: for difference on the Hamilton scale versus paroxetine (onset of antidepressant effect): 150 mg treatment group. The protocol: A double blind, 4 week, paroxetine controlled study of Org 34517 in depressed patients was carried out. Paroxetine is a selective serotonin re-uptake inhibitor which is recognized as an effective antidepressant for major depression.
Patients were randomly allocated to one of three treatment groups. Group I patients (Org 150 group: 50 patients) received 2 capsules with 75 mg of Org 34517 and one placebo (total daily dose 150 mg) for the first 2 weeks and 2 capsules with 75 mg Org 34517 and 1 capsule with 150 mg (total daily dose 300 mg) the next 2 weeks; Group II patients (Org 450 group: 46 patients) received 3 capsules with 150 mg Org 34517 (total daily dose 450 mg) in the first 2 weeks and 4 capsules of Org 34517 (total daily dose 600 mg) in the next 2 weeks; Group III patients (paroxetine group: 44 patients) received 2 capsules with 10 mg paroxetine and one placebo capsule (total daily dose 20 mg) for the first 2 weeks, followed by 2 capsules of 10 mg and one capsule of 20 mg paroxetine (total daily dose 40 mg) in the next 2 weeks. Medication was administered orally in the morning. Efficacy assessment was done on days 4, 7, 10, 14, 21, 28 and 35 by using the 21-item HAMD scale.
Afternoon cortisol plasma levels (ACT=afternoon cortisol test) were measured as described by Halbreich et al (J. Clin. Endocrinol. Metab. 54(6), 1262, 1982).

On to `CC#C[C@]1(O)CC[C@H]2[C@@H]3CCC4=CC(=O)CCC4=C3[C@@H](c3ccc(N(C)C)cc3)C[C@@]21C` [mifepristone, 17β-hydroxy-11β-(4-dimethylaminophenyl)-17α-(1-propynyl)estra-4,9-dien-3-one, reference compound], for which the “threshold dose for demonstrating in vivo antiglucocorticoid effects” value in assay [1] was determined as 5 mg/kg. The “treatment of psychosis associated with psychotic major depression” value in assay [2] is “effective”.
`CC#C[C@]1(O)CC[C@H]2[C@@H]3CCC4=CC(=O)CCC4=C3[C@@H](c3ccc4c(c3)OCO4)C[C@@]21C` [Org 34517, (11β,17β)-11-(1,3-benzodioxol-5-yl)-17-hydroxy-17-(1-propynyl)estra-4,9-dien-3-one]: the “potency in in vitro binding to the glucocorticoid receptor, relative to mifepristone” value on glucocorticoid receptor is 52%. For the same compound, the “antiglucocorticoid activity: effect (weight gain) on body weight, adrenals, thymus and spleen” value in assay [1] (orally applied, 10 mg/kg to 40 mg/kg, immature dexamethasone treated male rats) is “proved to increase with the dose”. In addition, the “threshold dose for demonstrating in vivo antiglucocorticoid effects” value in assay [1] was found to be 20 mg/kg. Further, the “antiglucocorticoid potency relative to mifepristone, estimated on the amount of dexamethason antagonism” value in the assay with (healthy) humans was 17%. For the same compound, in the assay on (healthy) humans, the “antiglucocorticoid potency relative to mifepristone, estimated on the basis of the cortisol increase” value is on record as 10-25%. For the same compound, the “difference on the Hamilton scale versus paroxetine (onset of antidepressant effect)” value in assay [3] (all patients, day 10, FIG. 1) is recorded as around 2 point; in assay [3] (dexamethason non-suppressors, day 10, FIG. 3) it was around 6 point; in assay [3] (patients with afternoon plasma cortisol higher than 10 μg/dl at start, day 10, FIG. 2), around 4 point. Moreover, the “onset of antidepressant effect” value in assay [3] (daily dosage not exceeding 300 mg compared with 450 mg or more) was “fast onset of antidepressant effect”.
